In brackets after ≈: the same amount, converted by molar mass. Several values for one entry are separate records, joined by “and”; a condition that tells them apart may be missing. Identical values can stand only once.
Columns and labels:
[1] = Solubility tests in 0.5M LiTFSI DME/DOL electrolyte; type: physicochemical; conditions: 0.5M LiTFSI in DME/DOL (v:v=1:1)
Experimental: In an argon-filled glovebox, certain mass of compounds 1-4 solids were added to vials. Then, 0.5M solution of LiTFSI in DME/DOL (v:v=1:1) was slowly added dropwise and the mixture was manually stirred until all material visibly dissolved. The amount of LiTFSI solution used was recorded to determine the solubility of each compound in the electrolyte. The order of solubility from highest to lowest is compound 4 (163.7 mmol L^−1), compound 1 (12.48 mmol L^−1), compound 2 (3.57 mmol L^−1), and compound 3 (2.76 mmol L^−1).

[2] = UV-vis of soaked solutions from cathode/separator at 50% state-of-discharge; type: physicochemical; conditions: ~360 nm; 50% state-of-charge; DME/DOL
Experimental: The CR2032 coin cell with cathode 2 or cathode 4 was discharged at the rate of 100 mA g^−1 until 50% state-of-discharge and was disassembled in an argon-filled glovebox. Then, the cathode and separator were immersed into 1.0 mL DME/DOL(1/1 v %) solvent for 6h. For the UV-vis absorption measurements, 30 μL of solution was extracted from the soaked vials and diluted with 3000 μL of DME/DOL solvent.

SMILES | solubility in the electrolyte [1] | melting point | absorbance intensity of soaked solution, higher than that of compound 2 [2] [%]
O=C1C(=O)c2ccc(cc2)C(=O)C(=O)c2ccc(cc2)C(=O)C(=O)c2ccc(cc2)C(=O)C(=O)c2ccc1cc2 [compound 1] | 12.48 mM (≈ 6600 µg/mL) | – | –
O=C1C(=O)c2ccc3cc(ccc3c2)C(=O)C(=O)c2ccc3cc(ccc3c2)C(=O)C(=O)c2ccc3cc(ccc3c2)C(=O)C(=O)c2ccc3cc1ccc3c2 [compound 2] | 3.6 ± 0.1 mM and 3.57 mM | > 360 °C (dec.) | –
O=C1C(=O)c2ccc(cc2)-c2ccc(cc2)C(=O)C(=O)c2ccc(cc2)-c2ccc(cc2)C(=O)C(=O)c2ccc(cc2)-c2ccc(cc2)C(=O)C(=O)c2ccc(cc2)-c2ccc1cc2 [compound 3] | 2.76 mM (≈ 2300 µg/mL) | 332 to 334 °C | –
O=C(C(=O)c1ccc2ccccc2c1)c1ccc2ccccc2c1 [compound 4, 1,2-bis(2-naphthyl)ethan-1,2-dione, reference compound] | 164 ± 1 mM and 163.7 mM | – | 300
